Earlier results as cited in patent US8883830B2, “Topical therapy for the treatment of migraines, muscle sprains, muscle spasms, spasticity and related conditions” (Afgin Pharma LLC., priority 2003, dated 2014).

What was measured:
[1] = relative to ergotamine

Row | oral bioavailability | Structure (SMILES) | emetic activity compared with ergotamine [1]
1 |  | CN1C[C@H](C(=O)N[C@]2(C)O[C@@]3(O)[C@@H]4CCCN4C(=O)[C@H](Cc4ccccc4)N3C2=O)C[C@@H]2c3cccc4[nH]cc(c34)C[C@H]21 [Dihydroergotamine] | about 12 times less active
2 | ~70% | CNS(=O)(=O)CCc1ccc2[nH]cc(C3CCN(C)CC3)c2c1 [naratriptan] | 
